Data: ChEMBL document CHEMBL1201862, “PubChem BioAssay data set” (2004)
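Test compounds were applied to cells in 96-well plates for 48 hours at 5 doses. The concentration for 50% growth inhibition is given as GI50.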 Active and inactive are the calls of the source. Cut-off read from the data, not from the text of the source: active = GI50 up to about 1.1 µM and inactive = higher.

How the values were obtained:
Test in all cases: NCI anticancer screen, dose series, 48 h
786-0 = tested on: 786-0
A498 = tested on: A498
A549 = tested on: A549
ACHN = tested on: ACHN
CAKI-1 = tested on: CAKI-1
CCRF-CEM = tested on: CCRF-CEM
COLO 205 = tested on: COLO 205
DLD-1 = tested on: DLD-1
DMS-114 = tested on: DMS-114
DMS-273 = tested on: DMS-273
EKVX = tested on: EKVX
HCC 2998 = tested on: HCC 2998
HCT-116 = tested on: HCT-116
HL-60 = tested on: HL-60
HOP-18 = tested on: HOP-18
HOP-62 = tested on: HOP-62
HOP-92 = tested on: HOP-92
HT-29 = tested on: HT-29
IGROV-1 = tested on: IGROV-1
K562 = tested on: K562
KM-20L2 = tested on: KM-20L2
KM12 = tested on: KM12
LOX IMVI = tested on: LOX IMVI
LXFL 529 = tested on: LXFL 529
M14 = tested on: M14
M19-MEL = tested on: M19-MEL
MOLT-4 = tested on: MOLT-4
Malme-3M = tested on: Malme-3M
NCI-H226 = tested on: NCI-H226
NCI-H23 = tested on: NCI-H23
NCI-H460 = tested on: NCI-H460
NCI-H522 = tested on: NCI-H522
OVCAR-3 = tested on: OVCAR-3
OVCAR-4 = tested on: OVCAR-4
OVCAR-5 = tested on: OVCAR-5
OVCAR-8 = tested on: OVCAR-8
RPMI-8226 = tested on: RPMI-8226
RXF 393 = tested on: RXF 393
RXF 631 = tested on: RXF 631
SF-268 = tested on: SF-268
SF-295 = tested on: SF-295
SF-539 = tested on: SF-539
SK-MEL-28 = tested on: SK-MEL-28
SK-MEL-2 = tested on: SK-MEL-2
SK-MEL-5 = tested on: SK-MEL-5
SK-OV-3 = tested on: SK-OV-3
SN12C = tested on: SN12C
SNB-19 = tested on: SNB-19
SNB-75 = tested on: SNB-75
SNB-78 = tested on: SNB-78
SR = tested on: SR
SW-620 = tested on: SW-620
TK-10 = tested on: TK-10
U-251 = tested on: U-251
UACC-257 = tested on: UACC-257
UACC-62 = tested on: UACC-62
UO-31 = tested on: UO-31
XF498 = tested on: XF498

Measured: GI50

O=C(OCc1ccccc1)n1cccc1
inactive: 786-0 > 100 µM | A498 > 100 µM | A549 > 100 µM | ACHN > 100 µM | CAKI-1 > 100 µM | CCRF-CEM > 100 µM | COLO 205 > 100 µM | DLD-1 > 100 µM | DMS-114 55.2 µM | DMS-273 > 100 µM | EKVX > 100 µM | HCC 2998 > 100 µM | HCT-116 84.9 µM | HL-60 57.4 µM | HOP-18 > 100 µM | HOP-62 > 100 µM | HOP-92 > 100 µM | HT-29 65.9 µM | IGROV-1 > 100 µM | K562 97.1 µM | KM-20L2 > 100 µM | KM12 > 100 µM | LOX IMVI > 100 µM | LXFL 529 > 100 µM | M14 > 100 µM | M19-MEL > 100 µM | MOLT-4 76.9 µM | Malme-3M > 100 µM | NCI-H226 > 100 µM | NCI-H23 98.6 µM | NCI-H460 > 100 µM | NCI-H522 > 100 µM | OVCAR-3 > 100 µM | OVCAR-4 > 100 µM | OVCAR-5 > 100 µM | OVCAR-8 > 100 µM | RPMI-8226 54.6 µM | RXF 393 > 100 µM | RXF 631 > 100 µM | SF-268 > 100 µM | SF-295 > 100 µM | SF-539 > 100 µM | SK-MEL-28 > 100 µM | SK-MEL-2 > 100 µM | SK-MEL-5 > 100 µM | SK-OV-3 > 100 µM | SN12C > 100 µM | SNB-19 > 100 µM | SNB-75 31.8 µM | SNB-78 > 100 µM | SR 88.3 µM | SW-620 > 100 µM | TK-10 > 100 µM | U-251 > 100 µM | UACC-257 > 100 µM | UACC-62 > 100 µM | UO-31 46.3 µM | XF498 78.2 µM
